Values of other authors in article PMC7395068, “The evolution of strategies to minimise the risk of human drug-induced liver injury (DILI) in drug discovery and development” (Archives of Toxicology, 2020).
Like-named read-outs stand apart in the source and are kept apart here.

How the values were obtained:
[1] = tested on: primary human hepatocytes, NIH3T3 fibroblasts, BSEP, CYP3A4; conditions: cited from earlier work
[2] = cited from earlier work
[3] = cited from earlier work; remark: listed apart in the source
[4] = In vitro Assay, ref Schadt 2015

CCCc1nc(C(C)(C)O)c(C(=O)O)n1Cc1ccc(-c2ccccc2-c2nnn[nH]2)cc1 [olmesartan]
Cellular toxicity (3T3 cells) [1, 4]: -VE
Combined Assay [1, 4]: -VE
GSH adduct HML [1, 4]: -VE
Hepatocyte cellular toxicity [1, 4]: -VE
MitoTox 3T3 [1, 4]: -VE
TDI CYP3A4 [1, 4]: -VE
hBSEP inhibition [1, 4]: -VE
DILI +VE (5-8), DILI -VE (-4) ([2]; ref Chen 2016): -VE
DILI severity category ([2]; ref Chen 2016): Ambiguous DILI-concern
In vivo DILI ([3]; […]): -VE
In vivo DILI ([3]; ref Schadt 2015): -VE

CN1C(C(=O)Nc2nccs2)=C(O)c2ccccc2S1(=O)=O [sudoxicam]
Cellular toxicity (3T3 cells) [1]: -VE
Combined Assay [1]: -VE
GSH adduct HML [1]: -VE
Hepatocyte cellular toxicity [1]: -VE
MitoTox 3T3 [1]: -VE
TDI CYP3A4 [1]: -VE
hBSEP inhibition [1]: -VE

OC(CNCC(O)C1CCc2cc(F)ccc2O1)C1CCc2cc(F)ccc2O1 (stereo not shown) [nebivolol]
Cellular toxicity (3T3 cells) [1, 4]: -VE
Combined Assay [1, 4]: -VE
GSH adduct HML [1, 4]: -VE
Hepatocyte cellular toxicity [1, 4]: -VE
MitoTox 3T3 [1, 4]: -VE
TDI CYP3A4 [1, 4]: -VE
hBSEP inhibition [1, 4]: -VE
DILI +VE (5-8), DILI -VE (-4) ([2]; ref Chen 2016): -VE
DILI severity category ([2]; ref Chen 2016): Ambiguous DILI-concern
In vivo DILI ([3]; ref Schadt 2015): -VE

CCOC(=O)COC1CCN(C(=O)[C@H](C)NC(=O)c2ccc(C(=N)NO)cc2)CC1 [sibrafiban]
Cellular toxicity (3T3 cells) [1, 4]: -VE
Combined Assay [1, 4]: -VE
GSH adduct HML [1, 4]: -VE
Hepatocyte cellular toxicity [1, 4]: -VE
MitoTox 3T3 [1, 4]: -VE
TDI CYP3A4 [1, 4]: -VE
hBSEP inhibition [1, 4]: -VE
In vivo DILI ([3]; ref Schadt 2015): -VE

Cc1ncc2n1-c1ccc(Cl)cc1C(c1ccccc1F)=NC2 [midazolam]
Cellular toxicity (3T3 cells) [1]: -VE
Combined Assay [1]: +VE
GSH adduct HML [1]: +VE
Hepatocyte cellular toxicity [1]: +VE
MitoTox 3T3 [1]: +VE
TDI CYP3A4 [1]: -VE
hBSEP inhibition [1]: +VE
DILI +VE (5-8), DILI -VE (-4) ([2]; ref Chen 2016): -VE
DILI severity category ([2]; ref Chen 2016): vNo-DILI-Concern
In vivo DILI ([3]; ref Schadt 2015): -VE

O=C1CCc2ccc(OCCCCN3CCN(c4cccc(Cl)c4Cl)CC3)cc2N1 [aripiprazole]
Cellular toxicity (3T3 cells) [1]: -VE
Combined Assay [1]: -VE
GSH adduct HML [1]: -VE
Hepatocyte cellular toxicity [1]: -VE
MitoTox 3T3 [1]: -VE
TDI CYP3A4 [1]: -VE
hBSEP inhibition [1]: -VE
DILI +VE (5-8), DILI -VE (-4) ([2]; ref Chen 2016): -VE
DILI severity category ([2]; ref Chen 2016): Ambiguous DILI-concern
In vivo DILI ([3]; ref Schadt 2015): -VE

CCCCc1oc2ccc(NS(C)(=O)=O)cc2c1C(=O)c1ccc(OCCCN(CCCC)CCCC)cc1 [dronedaron]
Cellular toxicity (3T3 cells) [1, 4]: +VE
Combined Assay [1, 4]: -VE
GSH adduct HML [1, 4]: -VE
Hepatocyte cellular toxicity [1, 4]: -VE
MitoTox 3T3 [1, 4]: -VE
TDI CYP3A4 [1, 4]: -VE
hBSEP inhibition [1, 4]: -VE
In vivo DILI ([3]; ref Schadt 2015): +VE

NCC(CC(=O)O)c1ccc(Cl)cc1 (stereo not shown) [baclofen]
Cellular toxicity (3T3 cells) [1, 4]: -VE
Combined Assay [1, 4]: -VE
GSH adduct HML [1, 4]: -VE
Hepatocyte cellular toxicity [1, 4]: -VE
MitoTox 3T3 [1, 4]: -VE
TDI CYP3A4 [1, 4]: -VE
hBSEP inhibition [1, 4]: -VE
DILI +VE (5-8), DILI -VE (-4) ([2]; ref Chen 2016): +VE
DILI severity category ([2]; ref Chen 2016): vLess-DILI-Concern
In vivo DILI ([3]; ref Schadt 2015): -VE

CN(C)CCC=C1c2ccccc2C=Cc2ccccc21 [cyclobenzaprine]
Cellular toxicity (3T3 cells) [1, 4]: +VE
Combined Assay [1, 4]: -VE
GSH adduct HML [1, 4]: -VE
Hepatocyte cellular toxicity [1, 4]: -VE
MitoTox 3T3 [1, 4]: -VE
TDI CYP3A4 [1, 4]: -VE
hBSEP inhibition [1, 4]: -VE
DILI +VE (5-8), DILI -VE (-4) ([2]; ref Chen 2016): +VE
DILI severity category ([2]; ref Chen 2016): vLess-DILI-Concern
In vivo DILI ([3]; ref Schadt 2015): -VE

Cc1ccc(-c2nc3ccc(C)cn3c2CC(=O)N(C)C)cc1 [zolpidem]
Cellular toxicity (3T3 cells) [1]: -VE
Combined Assay [1]: -VE
GSH adduct HML [1]: -VE
Hepatocyte cellular toxicity [1]: -VE
MitoTox 3T3 [1]: -VE
TDI CYP3A4 [1]: -VE
hBSEP inhibition [1]: -VE
DILI +VE (5-8), DILI -VE (-4) ([2]; ref Chen 2016): -VE
DILI severity category ([2]; ref Chen 2016): Ambiguous DILI-concern
In vivo DILI ([3]; […]): -VE
In vivo DILI ([3]; ref Schadt 2015): -VE

CC(=O)O[C@H]1C(=O)[C@@]2(C)[C@H]([C@H](OC(=O)c3ccccc3)[C@]3(O)C[C@H](OC(=O)[C@H](O)[C@@H](NC(=O)c4ccccc4)c4ccccc4)C(C)=C1C3(C)C)[C@]1(OC(C)=O)CO[C@@H]1C[C@@H]2O [paclitaxel]
DILI +VE (5-8), DILI -VE (-4) ([2]; ref Chen 2016): +VE
DILI severity category ([2]; ref Chen 2016): vLess-DILI-Concern
In vivo DILI ([3]; ref O'Brien 2006): +VE
In vivo DILI ([3]; ref Persson 2013): +VE

Nc1nnc(-c2cccc(Cl)c2Cl)c(N)n1 [lamotrigine]
DILI +VE (5-8), DILI -VE (-4) ([2]; ref Chen 2016): +VE
DILI severity category ([2]; ref Chen 2016): vMost-DILI-Concern
In vivo DILI ([3]; […]): +VE

CN1CC[C@]23c4c5ccc(O)c4O[C@H]2C(=O)CC[C@@]3(O)[C@H]1C5 [oxymorphone]
DILI +VE (5-8), DILI -VE (-4) ([2]; ref Chen 2016): -VE
DILI severity category ([2]; ref Chen 2016): vNo-DILI-Concern
In vivo DILI ([3]; […]): -VE

COc1ccc(OC)c(C(O)CNC(=O)CN)c1 (stereo not shown) [midodrine]
DILI +VE (5-8), DILI -VE (-4) ([2]; ref Chen 2016): -VE
DILI severity category ([2]; ref Chen 2016): vNo-DILI-Concern
In vivo DILI ([3]; […]): -VE

C[C@H]1[C@H](c2ccccc2)OCCN1C [phendimetrazine]
DILI +VE (5-8), DILI -VE (-4) ([2]; ref Chen 2016): -VE
DILI severity category ([2]; ref Chen 2016): vNo-DILI-Concern
In vivo DILI ([3]; […]): -VE

CCN1CCN(C(=O)N[C@@H](C(=O)N[C@@H]2C(=O)N3C(C(=O)O)=C(CSc4nnnn4C)CS[C@H]23)c2ccc(O)cc2)C(=O)C1=O [cefoperazone]
DILI +VE (5-8), DILI -VE (-4) ([2]; in vivo): +VE
DILI severity category ([2]; in vivo): vLess-DILI-Concern
In vivo DILI ([3]; in vivo): -VE

Cc1cccc(Nc2ccncc2S(=O)(=O)NC(=O)NC(C)C)c1 [torasemide]
DILI +VE (5-8), DILI -VE (-4) ([2]; ref Chen 2016): -VE
DILI severity category ([2]; ref Chen 2016): Ambiguous DILI-concern
In vivo DILI ([3]; […]): -VE

COCCCOc1cc(C[C@@H](C[C@H](N)[C@@H](O)C[C@H](C(=O)NCC(C)(C)C(N)=O)C(C)C)C(C)C)ccc1OC [aliskiren]
Cellular toxicity (3T3 cells) [1, 4]: -VE
Combined Assay [1, 4]: -VE
GSH adduct HML [1, 4]: -VE
Hepatocyte cellular toxicity [1, 4]: -VE
MitoTox 3T3 [1, 4]: -VE
TDI CYP3A4 [1, 4]: -VE
hBSEP inhibition [1, 4]: -VE

C[C@](N)(Cc1ccc(O)cc1)C(=O)O [metyrosine]
DILI +VE (5-8), DILI -VE (-4) ([2]; ref Chen 2016): -VE
DILI severity category ([2]; ref Chen 2016): vNo-DILI-Concern
In vivo DILI ([3]; […]): -VE

C[C@]12CC[C@@H]3c4ccc(O)cc4CC[C@H]3[C@@H]1CCC2=O [estrone]
DILI +VE (5-8), DILI -VE (-4) ([2]; in vivo): -VE
DILI severity category ([2]; in vivo): Ambiguous DILI-concern
In vivo DILI ([3]; in vivo): +VE

capreomycin
DILI +VE (5-8), DILI -VE (-4) ([2]; in vivo): -VE
DILI severity category ([2]; in vivo): Ambiguous DILI-concern
In vivo DILI ([3]; in vivo): -VE

CCN(CC)CCNC(=O)c1ccc(N)cc1 [procainamide]
DILI +VE (5-8), DILI -VE (-4) ([2]; in vivo): +VE
DILI severity category ([2]; in vivo): vLess-DILI-Concern
In vivo DILI ([3]; in vivo): +VE

C#CCN(C)[C@H](C)Cc1ccccc1 [selegiline]
DILI +VE (5-8), DILI -VE (-4) ([2]; in vivo): -VE
DILI severity category ([2]; in vivo): vNo-DILI-Concern
In vivo DILI ([3]; in vivo): -VE

Oc1ccc2c(c1)[C@@]13CCCC[C@@]1(O)[C@@H](C2)N(CC1CCC1)CC3 [butorphanol]
DILI +VE (5-8), DILI -VE (-4) ([2]; ref Chen 2016): -VE
DILI severity category ([2]; ref Chen 2016): vNo-DILI-Concern
In vivo DILI ([3]; […]): -VE

Cc1cccc(C)c1NC(=O)C1CCCCN1C (stereo not shown) [mepivacaine]
DILI +VE (5-8), DILI -VE (-4) ([2]; ref Chen 2016): -VE
DILI severity category ([2]; ref Chen 2016): vNo-DILI-Concern
In vivo DILI ([3]; […]): -VE
